Where two headings read alike, the source gives them in different places. One block for each compound: values may come before it. Residues, ends and D or L forms follow the SMILES beside them. No end group written: not given here.
Legend:
Format in all cases: biochemical
[1] = target: T1, HDAC1/MTA1(aa: 162–546)/RBBP4 core NuRD complex (HMR) (Homo sapiens, UniProt Q09028+Q13330+Q13547); test: Boc-Lys HDAC inhibition assay; conditions: 50 nM complex, 20 min preincubation rt, 100 μM Boc-(Ac)Lys-AMC, 37 °C 30 min, technical replicates N = 2
T1 construct: made in house; host or cells: HEK293F
T1 sequence (Q13547 whole entry, species assumed): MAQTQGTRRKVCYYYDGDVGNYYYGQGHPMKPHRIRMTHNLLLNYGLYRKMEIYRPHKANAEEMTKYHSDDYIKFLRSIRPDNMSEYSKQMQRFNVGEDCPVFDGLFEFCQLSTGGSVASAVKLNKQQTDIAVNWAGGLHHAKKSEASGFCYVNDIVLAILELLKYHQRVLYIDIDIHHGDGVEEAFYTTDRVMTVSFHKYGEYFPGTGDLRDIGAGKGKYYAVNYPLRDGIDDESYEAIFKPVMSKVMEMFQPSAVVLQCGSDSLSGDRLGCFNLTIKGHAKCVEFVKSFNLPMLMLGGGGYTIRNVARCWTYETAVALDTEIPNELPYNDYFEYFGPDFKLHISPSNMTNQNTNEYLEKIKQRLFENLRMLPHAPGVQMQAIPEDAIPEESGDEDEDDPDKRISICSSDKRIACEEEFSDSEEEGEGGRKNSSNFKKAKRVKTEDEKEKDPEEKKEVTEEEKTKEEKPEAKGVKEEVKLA
T1 sequence (Q13330 162-546 partner limits assumed, species assumed): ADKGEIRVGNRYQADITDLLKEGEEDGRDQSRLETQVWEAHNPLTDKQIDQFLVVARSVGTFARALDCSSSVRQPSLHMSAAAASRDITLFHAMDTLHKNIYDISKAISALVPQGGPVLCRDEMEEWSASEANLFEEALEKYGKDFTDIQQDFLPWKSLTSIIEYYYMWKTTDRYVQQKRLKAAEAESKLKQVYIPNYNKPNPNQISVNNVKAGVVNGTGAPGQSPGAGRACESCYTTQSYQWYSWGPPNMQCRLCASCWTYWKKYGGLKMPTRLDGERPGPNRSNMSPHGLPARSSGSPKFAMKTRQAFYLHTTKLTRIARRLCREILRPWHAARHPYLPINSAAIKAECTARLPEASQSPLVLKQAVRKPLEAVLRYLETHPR
T1 sequence (Q09028 whole entry partner, species assumed): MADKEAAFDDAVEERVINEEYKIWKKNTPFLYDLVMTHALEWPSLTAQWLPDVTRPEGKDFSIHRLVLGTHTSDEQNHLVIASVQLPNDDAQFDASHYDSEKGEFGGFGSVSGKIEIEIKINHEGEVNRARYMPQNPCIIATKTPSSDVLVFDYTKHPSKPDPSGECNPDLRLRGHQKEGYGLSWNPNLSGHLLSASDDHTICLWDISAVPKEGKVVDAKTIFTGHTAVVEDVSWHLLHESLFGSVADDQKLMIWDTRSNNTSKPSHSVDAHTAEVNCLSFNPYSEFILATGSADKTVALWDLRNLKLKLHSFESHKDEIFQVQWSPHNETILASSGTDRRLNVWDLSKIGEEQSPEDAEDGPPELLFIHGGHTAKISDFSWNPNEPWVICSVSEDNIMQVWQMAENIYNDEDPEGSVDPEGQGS
Method: (§1) Inhibition assays with various peptide inhibitors were performed using a fluorescence-based assay. The inhibitor peptides were initially dissolved in 5% dimethyl sulfoxide (DMSO) at a stock concentration of 25 mM before being further diluted in the HDAC assay buffer (50 mM Tris/HCl, pH 7.5, 150 mM NaCl). Serial dilutions (1:3) of the inhibitor were prepared, starting at a concentration of 500 μM. HDAC complexes were diluted to a final concentration of 50 nM and incubated with the inhibitor for 20 min at rt. The Boc-(Ac)Lys-AMC substrate was added at a final concentration of 100 μM The final volume of the reaction was 50 μL. The reaction was incubated at 37 °C, 150 rpm, for 30 min, before a developer (50 mM Tris, pH 7.5, 100 mM NaCl, 10 mg/mL trypsin) was added. The reaction was incubated with the developer for 10 min before being measured (PerkinElmer, 2030 multilabel reader, VICTOR X5, excitation 335 nm, emission 460 nm). The absorbance of the buffer as the blank control was subtracted from the HDAC activity, and IC50 calculations were performed using the nonlinear regression log(inhibitor) vs response equation Y = bottom + (top – bottom)/(1+10^(X–Log IC50)) in Graphpad Prism 9.

RERE complex = target: T2, RERE complex (Homo sapiens, UniProt Q13547+Q9P2R6); test: Boc-Lys HDAC inhibition assay; conditions: HDAC complexes tables; 50 nM complex, 100 μM Boc-(Ac)Lys-AMC, 37 °C 30 min; technical replicates N = 2
T2 construct: made in house; host or cells: HEK293F
T2 sequence (Q13547 whole entry): as the sequence (Q13547 whole entry, species assumed) above
T2 sequence (Q9P2R6 whole entry partner): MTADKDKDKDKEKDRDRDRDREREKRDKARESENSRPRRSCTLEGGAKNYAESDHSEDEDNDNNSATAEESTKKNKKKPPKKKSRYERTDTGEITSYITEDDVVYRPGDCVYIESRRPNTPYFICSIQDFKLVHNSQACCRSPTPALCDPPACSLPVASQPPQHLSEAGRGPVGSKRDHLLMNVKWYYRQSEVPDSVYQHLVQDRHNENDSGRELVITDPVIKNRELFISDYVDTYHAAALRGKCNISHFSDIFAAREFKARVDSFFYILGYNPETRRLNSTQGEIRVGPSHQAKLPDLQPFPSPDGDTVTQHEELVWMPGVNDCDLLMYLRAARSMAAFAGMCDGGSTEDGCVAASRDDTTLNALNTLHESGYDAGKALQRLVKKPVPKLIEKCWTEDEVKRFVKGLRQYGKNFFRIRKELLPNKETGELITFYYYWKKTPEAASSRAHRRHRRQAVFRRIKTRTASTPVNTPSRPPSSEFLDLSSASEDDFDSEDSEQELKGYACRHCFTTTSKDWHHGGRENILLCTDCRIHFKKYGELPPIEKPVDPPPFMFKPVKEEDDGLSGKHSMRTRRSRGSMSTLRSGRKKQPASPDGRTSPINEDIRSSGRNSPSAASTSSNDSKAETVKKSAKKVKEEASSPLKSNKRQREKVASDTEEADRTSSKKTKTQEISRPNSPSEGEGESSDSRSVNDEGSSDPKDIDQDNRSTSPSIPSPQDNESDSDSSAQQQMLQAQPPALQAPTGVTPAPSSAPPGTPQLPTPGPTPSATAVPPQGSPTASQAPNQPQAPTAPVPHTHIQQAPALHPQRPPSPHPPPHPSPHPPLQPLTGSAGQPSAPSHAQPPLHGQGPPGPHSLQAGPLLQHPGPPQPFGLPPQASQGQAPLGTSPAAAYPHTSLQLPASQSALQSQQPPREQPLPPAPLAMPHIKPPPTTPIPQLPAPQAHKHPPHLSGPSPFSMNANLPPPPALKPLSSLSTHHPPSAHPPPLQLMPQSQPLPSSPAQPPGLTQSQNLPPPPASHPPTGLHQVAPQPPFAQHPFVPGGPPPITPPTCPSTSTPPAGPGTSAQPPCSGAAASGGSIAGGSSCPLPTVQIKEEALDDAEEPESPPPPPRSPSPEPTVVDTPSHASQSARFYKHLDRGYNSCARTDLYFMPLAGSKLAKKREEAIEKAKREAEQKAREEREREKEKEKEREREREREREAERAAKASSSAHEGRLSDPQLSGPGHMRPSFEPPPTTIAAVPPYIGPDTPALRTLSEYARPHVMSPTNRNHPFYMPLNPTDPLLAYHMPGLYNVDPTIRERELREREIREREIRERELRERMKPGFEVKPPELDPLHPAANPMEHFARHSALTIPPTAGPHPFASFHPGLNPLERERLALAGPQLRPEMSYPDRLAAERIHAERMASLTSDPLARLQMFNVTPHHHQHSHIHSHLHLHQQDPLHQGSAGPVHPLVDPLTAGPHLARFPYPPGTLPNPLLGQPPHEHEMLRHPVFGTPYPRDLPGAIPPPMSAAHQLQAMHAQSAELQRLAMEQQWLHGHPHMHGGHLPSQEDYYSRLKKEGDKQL
Description: (§2) Finally, we directed our attention toward assessing how the results from the experiments with HMR would be common to the other known class I HDAC corepressor complexes. RERE, MIER1, CoREST, HMR, MiDAC, Sin3A, and SMRT were expressed and purified, and the concentrations were normalized based on the concentration of HDAC1 or HDAC3 (Figure 4A). We determined the potency of H3(23–29)K27Hd 12 and H4(12–18)K16Hd 16 against RERE, MIER1, CoREST, NuRD, MiDAC, Sin3A, and SMRT (Figure 4B). In addition, we repeated the H3(23–29)K27Hd alanine scan experiment for each of these complexes to assess whether or not the importance of Lys23 for maintaining potency against HMR was replicated across the other complexes (Figure 4C).
as §1

Sin3A complex = target: T3, Sin3A complex (Homo sapiens, UniProt Q13547); test: Boc-Lys HDAC inhibition assay; conditions: HDAC complexes tables; 50 nM complex, 100 μM Boc-(Ac)Lys-AMC, 37 °C 30 min; technical replicates N = 2
T3 construct: made in house; host or cells: HEK293F
Description: as §2, §1

SMRT complex (HDAC3) = target: T4, SMRT complex (HDAC3) (Homo sapiens, UniProt O15379); test: Boc-Lys HDAC inhibition assay; conditions: HDAC complexes tables; 50 nM complex, 100 μM Boc-(Ac)Lys-AMC, 37 °C 30 min; technical replicates N = 2
T4 construct: made in house; host or cells: HEK293F
T4 sequence (O15379 whole entry, species assumed, one chain of several): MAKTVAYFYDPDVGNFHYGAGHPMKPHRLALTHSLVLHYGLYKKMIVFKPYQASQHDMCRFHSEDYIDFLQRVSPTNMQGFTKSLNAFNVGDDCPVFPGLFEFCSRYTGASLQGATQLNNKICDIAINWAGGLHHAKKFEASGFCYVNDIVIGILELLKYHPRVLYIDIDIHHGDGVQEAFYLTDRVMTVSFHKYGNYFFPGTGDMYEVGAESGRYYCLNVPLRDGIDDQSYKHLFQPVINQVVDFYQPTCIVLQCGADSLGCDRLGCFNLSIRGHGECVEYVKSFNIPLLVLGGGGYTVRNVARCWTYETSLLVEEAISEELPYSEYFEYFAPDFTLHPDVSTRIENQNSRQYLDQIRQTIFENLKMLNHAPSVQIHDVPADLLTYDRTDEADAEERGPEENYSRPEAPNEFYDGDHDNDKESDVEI
Description: as §2, §1

MiDAC complex = target: T5, MiDAC complex (Homo sapiens, UniProt Q13547+Q6PJG2+Q9H147); test: Boc-Lys HDAC inhibition assay; conditions: HDAC complexes tables; 50 nM complex, 100 μM Boc-(Ac)Lys-AMC, 37 °C 30 min; technical replicates N = 2
T5 construct: made in house; host or cells: HEK293F
T5 sequence (Q13547 whole entry): as the sequence (Q13547 whole entry, species assumed) above
T5 sequence (Q6PJG2 628-887 partner limits assumed): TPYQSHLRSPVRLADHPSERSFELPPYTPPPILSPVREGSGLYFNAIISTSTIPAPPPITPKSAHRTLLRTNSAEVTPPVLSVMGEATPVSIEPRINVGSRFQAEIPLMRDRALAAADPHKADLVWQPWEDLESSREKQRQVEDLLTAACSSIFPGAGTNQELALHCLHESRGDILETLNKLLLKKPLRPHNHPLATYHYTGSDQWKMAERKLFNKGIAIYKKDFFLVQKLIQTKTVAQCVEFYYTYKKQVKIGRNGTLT
T5 sequence (Q9H147 whole entry partner): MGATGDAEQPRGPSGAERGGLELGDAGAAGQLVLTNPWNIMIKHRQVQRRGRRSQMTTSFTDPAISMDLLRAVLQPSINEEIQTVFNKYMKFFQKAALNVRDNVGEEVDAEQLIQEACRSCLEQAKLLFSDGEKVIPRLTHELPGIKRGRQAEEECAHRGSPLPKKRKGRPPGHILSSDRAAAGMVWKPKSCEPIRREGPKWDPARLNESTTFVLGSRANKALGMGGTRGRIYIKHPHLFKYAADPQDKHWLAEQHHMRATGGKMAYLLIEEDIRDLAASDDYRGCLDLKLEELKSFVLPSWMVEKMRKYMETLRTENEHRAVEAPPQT
Description: as §2, §1

CoREST complex = target: T6, CoREST complex (Homo sapiens, UniProt Q13547+Q9UKL0); test: Boc-Lys HDAC inhibition assay; conditions: HDAC complexes tables; 50 nM complex, 100 μM Boc-(Ac)Lys-AMC, 37 °C 30 min; technical replicates N = 2
T6 construct: made in house; host or cells: HEK293F
T6 sequence (Q13547 whole entry, other chains not shown): as the sequence (Q13547 whole entry, species assumed) above
T6 sequence (Q9UKL0 86-485 partner limits assumed, other chains not shown): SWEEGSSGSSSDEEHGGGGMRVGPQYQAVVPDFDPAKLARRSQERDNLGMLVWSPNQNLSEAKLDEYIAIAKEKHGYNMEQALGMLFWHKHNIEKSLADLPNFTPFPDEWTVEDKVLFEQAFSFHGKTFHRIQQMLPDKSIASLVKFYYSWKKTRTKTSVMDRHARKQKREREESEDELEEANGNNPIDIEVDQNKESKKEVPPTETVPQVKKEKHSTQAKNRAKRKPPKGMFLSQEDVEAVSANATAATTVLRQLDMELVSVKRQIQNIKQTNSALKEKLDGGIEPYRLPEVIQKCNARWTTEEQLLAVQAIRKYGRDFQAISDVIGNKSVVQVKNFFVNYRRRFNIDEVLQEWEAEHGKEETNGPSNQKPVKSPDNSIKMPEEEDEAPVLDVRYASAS
Description: as §2, §1

MIER1 complex = target: T7, MIER1 complex (Homo sapiens, UniProt Q13547+Q8N108); test: Boc-Lys HDAC inhibition assay; conditions: HDAC complexes tables; 50 nM complex, 100 μM Boc-(Ac)Lys-AMC, 37 °C 30 min; technical replicates N = 2
T7 construct: made in house; host or cells: HEK293F
T7 sequence (Q13547 whole entry): as the sequence (Q13547 whole entry, species assumed) above
T7 sequence (Q8N108 whole entry partner): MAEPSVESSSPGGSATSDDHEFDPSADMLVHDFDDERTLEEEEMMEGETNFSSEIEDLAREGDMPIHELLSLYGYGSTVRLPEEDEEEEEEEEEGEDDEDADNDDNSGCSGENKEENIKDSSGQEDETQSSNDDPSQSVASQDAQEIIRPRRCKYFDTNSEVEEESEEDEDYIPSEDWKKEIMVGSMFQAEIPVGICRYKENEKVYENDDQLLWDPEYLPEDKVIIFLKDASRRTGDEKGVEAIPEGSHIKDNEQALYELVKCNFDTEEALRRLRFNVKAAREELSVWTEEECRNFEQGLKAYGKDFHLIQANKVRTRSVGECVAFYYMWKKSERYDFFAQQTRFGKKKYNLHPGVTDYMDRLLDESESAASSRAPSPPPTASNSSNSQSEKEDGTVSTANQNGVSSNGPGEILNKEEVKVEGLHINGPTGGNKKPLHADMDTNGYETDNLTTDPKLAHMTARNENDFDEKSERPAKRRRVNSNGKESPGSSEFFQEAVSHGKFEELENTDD
Description: as §2, §1

[2] = target: T1, HDAC1/MTA1(aa: 162–546)/RBBP4 core NuRD complex (HMR); test: Caliper deacetylation assay (rate-of-turnover of substrate peptides); conditions: 125 nM HMR, 2 μM peptide; for Initial Rate of HMR against histone peptides: Rate (% conversion min-1): 50 mM Tris/HCl pH 7.5, 50 mM NaCl, 5% glycerol, linear fit of first 8 min, Caliper EZ Reader II, technical replicates N = 2
Method: The acetyl-lysine-containing library (compounds 1–8) was assessed for the initial rate at which they were deacetylated by the HMR complex (Figure 2A).
Reactions (30 μL) contained 125 nM HMR and 2 μM fluorescein-labeled peptides (peptides 1–8) in 50 mM Tris/HCl, pH 7.5, 50 mM NaCl, and 5% glycerol. The deacetylase reaction was recorded over a 30 min period, every 90 s, using a Caliper EZ Reader II System (Caliper Life Sciences, http://www.caliperls.com). The initial rates were calculated using the formula Y = Y-intercept + slope × X during the first 8 min of the reaction using GraphPad Prism 9.

[3] = inhibitor library experiment, fluorescence, read-out: IC50 of HMR against histone peptide library
[4] = alanine scan / H4K12Hd experiments, read-out: IC50 of HMR against H3 K27Hd, H4 K16Hd and H4K12Hd peptides

IC50 [1, 3]: 0.333 µM
Compound: CC(=O)N[C@@H](C)C(=O)N[C@@H](CCCNC(=N)N)C(=O)N[C@H](C(=O)N[C@@H](CCCCCC(=O)NO)C(=O)N[C@@H](CCC(N)=O)C(=O)N[C@H](C(=O)N[C@@H](C)C(N)=O)[C@@H](C)O)[C@@H](C)O [compound 9, H3 (1-7) K4Hd] (HELM PEPTIDE1{[ac].A.R.T.[O=C([C@H](CCCCCC(=O)[*:3])N[*:1])[*:2]].Q.T.A.[am]}|CHEM1{[ON[*:1]]}$PEPTIDE1,CHEM1,5:R3-1:R1$$$V2.0)

IC50 [1, 3]: 0.886 µM
Compound: CC(=O)N[C@H](C(=O)NCC(=O)NCC(=O)N[C@@H](CCCCCC(=O)NO)C(=O)N[C@@H](C)C(=O)N1CCC[C@H]1C(=O)N[C@@H](CCCNC(=N)N)C(N)=O)[C@@H](C)O [compound 11, H3 (11-17) K14Hd] (HELM PEPTIDE1{[ac].T.G.G.[O=C([C@H](CCCCCC(=O)[*:3])N[*:1])[*:2]].A.P.R.[am]}|CHEM1{[ON[*:1]]}$PEPTIDE1,CHEM1,5:R3-1:R1$$$V2.0)

IC50 [1, 3]: 0.633 µM
Compound: CC(=O)N[C@@H](CO)C(=O)NCC(=O)N[C@@H](CCCNC(=N)N)C(=O)NCC(=O)N[C@@H](CCCCCC(=O)NO)C(=O)NCC(=O)NCC(=O)N[C@@H](CCCCN)C(N)=O [compound 13, H4 (1-8) K5Hd] (HELM PEPTIDE1{[ac].S.G.R.G.[O=C([C@H](CCCCCC(=O)[*:3])N[*:1])[*:2]].G.G.K.[am]}|CHEM1{[ON[*:1]]}$PEPTIDE1,CHEM1,6:R3-1:R1$$$V2.0)

IC50 [1, 3]: 0.431 µM
Compound: CC(=O)NCC(=O)N[C@@H](CCCCN)C(=O)NCC(=O)NCC(=O)N[C@@H](CCCCCC(=O)NO)C(=O)NCC(=O)N[C@@H](CC(C)C)C(N)=O [compound 14, H4 (4-10) K8Hd] (HELM PEPTIDE1{[ac].G.K.G.G.[O=C([C@H](CCCCCC(=O)[*:3])N[*:1])[*:2]].G.L.[am]}|CHEM1{[ON[*:1]]}$PEPTIDE1,CHEM1,6:R3-1:R1$$$V2.0)

IC50 [1, 4]: 26.2 µM
IC50 (RERE complex): 28.7 µM
IC50 (Sin3A complex): 71.6 µM
IC50 (SMRT complex (HDAC3)): 17.4 µM
IC50 (MiDAC complex): 18.1 µM
IC50 (CoREST complex): 18.3 µM
IC50 (MIER1 complex): 20.1 µM
Compound: CC(=O)N[C@@H](C)C(=O)N[C@@H](C)C(=O)N[C@@H](C)C(=O)N[C@@H](CCCNC(=N)N)C(=O)N[C@@H](CCCCCC(=O)NO)C(=O)N[C@@H](CO)C(=O)N[C@@H](C)C(N)=O [compound 21, H3(23–29)K23A K27Hd] (HELM PEPTIDE1{[ac].A.A.A.R.[O=C([C@H](CCCCCC(=O)[*:3])N[*:1])[*:2]].S.A.[am]}|CHEM1{[ON[*:1]]}$PEPTIDE1,CHEM1,6:R3-1:R1$$$V2.0)

IC50 [1, 4]: 0.172 µM
IC50 (RERE complex): 0.464 µM
IC50 (SMRT complex (HDAC3)): 0.11 µM
IC50 (MiDAC complex): 0.203 µM
IC50 (CoREST complex): 0.287 µM
IC50 (MIER1 complex): 0.334 µM
Compound: CC(=O)N[C@@H](CCCCN)C(=O)N[C@@H](C)C(=O)N[C@@H](C)C(=O)N[C@@H](C)C(=O)N[C@@H](CCCCCC(=O)NO)C(=O)N[C@@H](CO)C(=O)N[C@@H](C)C(N)=O [compound 22, H3(23–29)R26A K27Hd] (HELM PEPTIDE1{[ac].K.A.A.A.[O=C([C@H](CCCCCC(=O)[*:3])N[*:1])[*:2]].S.A.[am]}|CHEM1{[ON[*:1]]}$PEPTIDE1,CHEM1,6:R3-1:R1$$$V2.0)

IC50 [1, 4]: 3.25 µM
Compound: CC(=O)N[C@@H](C)C(=O)NCC(=O)NCC(=O)N[C@@H](C)C(=O)N[C@@H](CCCCCC(=O)NO)C(=O)N[C@@H](CCCNC(=N)N)C(=O)N[C@@H](Cc1c[nH]cn1)C(N)=O [compound 24, H4 (12-18) K16Hd K12A] (HELM PEPTIDE1{[ac].A.G.G.A.[O=C([C@H](CCCCCC(=O)[*:3])N[*:1])[*:2]].R.H.[am]}|CHEM1{[ON[*:1]]}$PEPTIDE1,CHEM1,6:R3-1:R1$$$V2.0)

IC50 [1, 4]: 0.429 µM
Compound: CC(=O)N[C@@H](CCCCN)C(=O)NCC(=O)NCC(=O)N[C@@H](C)C(=O)N[C@@H](CCCCCC(=O)NO)C(=O)N[C@@H](C)C(=O)N[C@@H](Cc1c[nH]cn1)C(N)=O [compound 25, H4 (12-18) K16Hd R17A] (HELM PEPTIDE1{[ac].K.G.G.A.[O=C([C@H](CCCCCC(=O)[*:3])N[*:1])[*:2]].A.H.[am]}|CHEM1{[ON[*:1]]}$PEPTIDE1,CHEM1,6:R3-1:R1$$$V2.0)

IC50 [1, 4]: 1.15 µM
Compound: CC(=O)N[C@@H](CCCCN)C(=O)NCC(=O)NCC(=O)N[C@@H](C)C(=O)N[C@@H](CCCCCC(=O)NO)C(=O)N[C@@H](CCCNC(=N)N)C(=O)N[C@@H](C)C(N)=O [compound 26, H4 (12-18) K16Hd H18A] (HELM PEPTIDE1{[ac].K.G.G.A.[O=C([C@H](CCCCCC(=O)[*:3])N[*:1])[*:2]].R.A.[am]}|CHEM1{[ON[*:1]]}$PEPTIDE1,CHEM1,6:R3-1:R1$$$V2.0)

Initial Rate of HMR against histone peptides: Rate (% conversion min-1) [2]: 0.18 +/- 0.009 % conversion min-1
Compound: H3(1–7)K4Ac (ARTK(Ac)QTA-NH2; UniProt P68431 2-8, looked up, fragment) [compound 1, acetyl-lysine-containing histone H3 tail substrate peptide, C-terminal amide]

Initial Rate of HMR against histone peptides: Rate (% conversion min-1) [2]: 0.40 +/- 0.013 % conversion min-1
Compound: H3(6–12)K9Ac (TARK(Ac)STG-NH2; UniProt P68431 7-13, looked up, fragment) [compound 2, acetyl-lysine-containing histone H3 tail substrate peptide, C-terminal amide]

Initial Rate of HMR against histone peptides: Rate (% conversion min-1) [2]: 0.10 +/- 0.027 % conversion min-1
Compound: H3(11–17)K14Ac (TGGK(Ac)APR-NH2; UniProt P68431 12-18, looked up, fragment) [compound 3, acetyl-lysine-containing histone H3 tail substrate peptide, C-terminal amide]

Initial Rate of HMR against histone peptides: Rate (% conversion min-1) [2]: 0.79 +/-0.075 % conversion min-1
Compound: H3(23–29)K27Ac (KAARK(Ac)SA-NH2; UniProt P68431 24-30, looked up, fragment) [compound 4, acetyl-lysine-containing histone H3 tail substrate peptide, C-terminal amide]

Initial Rate of HMR against histone peptides: Rate (% conversion min-1) [2]: 0.32 +/-0.065 % conversion min-1
Compound: H4(1–8)K5Ac [compound 5]

Initial Rate of HMR against histone peptides: Rate (% conversion min-1) [2]: 0.16 +/-0.016 % conversion min-1
Compound: H4(4–10)K8Ac (GKGGK(Ac)GL-NH2; UniProt P62805 5-11, looked up, fragment) [compound 6, acetyl-lysine-containing histone H4 tail substrate peptide, C-terminal amide]

Initial Rate of HMR against histone peptides: Rate (% conversion min-1) [2]: 0.03 +/-0.020 % conversion min-1
Km ([2]; 30 min time course, table of initial rates): Unstable
Compound: H4(9–15)K12Ac (GLGK(Ac)GGA-NH2; UniProt P62805 10-16, looked up, fragment) [compound 7, acetyl-lysine-containing histone H4 tail substrate peptide, C-terminal amide]

Initial Rate of HMR against histone peptides: Rate (% conversion min-1) [2]: 1.08 +/-0.024 % conversion min-1
Compound: H4(12–18)K16Ac (KGGAK(Ac)RH-NH2; UniProt P62805 13-19, looked up, fragment) [compound 8, acetyl-lysine-containing histone H4 tail substrate peptide, C-terminal amide]

Reference: paper PMC9488896, “Hydroxamic Acid-Modified Peptide Library Provides Insights into the Molecular Basis for the Substrate Selectivity of HDAC Corepressor Complexes” (ACS Chemical Biology, 2022)
